Assay results reported in patent US20260317324A1, “BIFUNCTIONAL COMPOUNDS FOR DEGRADING BRAF VIA UBIQUITIN PROTEOSOME PATHWAY” (Nurix Therapeutics, Inc., priority 2023, published 2026).

Target: T1, BRAF V600E (Homo sapiens, UniProt P15056, V600E)
T1 construct: endogenous C-terminal HiBiT fusion tag on BRAF V600E allele; endogenous in cells; host or cells: A375 clone 1F10 (CRISPR-Cas9 knock-in of the HiBiT tag; parental A375 from ATCC)
Test: BRAF HiBiT degradation assay, C-terminal HiBiT-tagged BRAF V600E A375 cells (clone 1F10), Nano-Glo HiBiT Lytic assay
Format: cell-based
Conditions: A375 (BRAF V600E); for DC50: DC50 at 50%: fitted conc. at Y=50; for Dmax: A-375, percentage protein degraded at maximal compound effect relative to DMSO
In short: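 A375 cells (clone 1F10, endogenous C-terminal HiBiT on BRAF V600E) were seeded at 10,000 cells/well, grown 24 h, then dosed in duplicate with an 11-point series from 1 μM to 0.01 nM (0.2% DMSO). Nano-Glo HiBiT lytic luminescence was normalised to DMSO and wildtype-A375 background; DC50 was read at 50% protein remaining, alongside observed Dmax.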

T1 sequence (P15056 whole entry V600E, the tested form may be a part): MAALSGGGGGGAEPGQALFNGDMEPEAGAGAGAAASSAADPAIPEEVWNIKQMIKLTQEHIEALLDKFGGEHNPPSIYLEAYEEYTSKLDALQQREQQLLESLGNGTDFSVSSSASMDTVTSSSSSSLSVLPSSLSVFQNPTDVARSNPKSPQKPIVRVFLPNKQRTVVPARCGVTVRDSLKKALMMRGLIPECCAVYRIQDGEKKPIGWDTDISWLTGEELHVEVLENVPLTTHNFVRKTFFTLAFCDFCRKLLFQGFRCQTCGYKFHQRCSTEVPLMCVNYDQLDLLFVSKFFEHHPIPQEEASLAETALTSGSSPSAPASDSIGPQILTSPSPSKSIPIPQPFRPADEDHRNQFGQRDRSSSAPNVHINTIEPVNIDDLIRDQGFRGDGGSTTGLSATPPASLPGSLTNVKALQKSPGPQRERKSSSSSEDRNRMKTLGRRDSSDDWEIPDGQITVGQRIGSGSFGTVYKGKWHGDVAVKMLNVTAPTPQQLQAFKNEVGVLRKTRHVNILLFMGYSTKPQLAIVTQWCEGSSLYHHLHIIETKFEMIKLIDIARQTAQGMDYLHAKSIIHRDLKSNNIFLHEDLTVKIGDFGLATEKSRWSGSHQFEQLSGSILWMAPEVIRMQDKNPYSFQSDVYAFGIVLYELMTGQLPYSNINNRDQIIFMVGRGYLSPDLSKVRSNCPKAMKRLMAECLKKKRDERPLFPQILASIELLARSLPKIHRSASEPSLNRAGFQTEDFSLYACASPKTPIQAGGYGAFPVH

Row | SMILES | DC50 [nM] | Dmax [%]
1 | CCCS(=O)(=O)Nc1cccc(-c2nc(C(C)(C)C)sc2-c2ccnc(NC3CCN(C4CCN(CC5CCN(c6ccc(C7CCC(=O)NC7=O)cn6)CC5)CC4)CC3)n2)c1F (racemic) [Compound 136, Rac-N-(3-{2-tert-butyl-5-[2-({1′-[(1-{5-[(3R)-2,6-dioxopiperidin-3-yl]pyridin-2-yl}piperidin-4-yl)methyl]-[1,4′-bipiperidin]-4-yl}amino)pyrimidin-4-yl]-1,3-thiazol-4-yl}-2-fluorophenyl)propane-1-sulfonamide] | 50 to 500 | 30 to 70
2 | CCCS(=O)(=O)Nc1cccc(-c2nc(C(C)(C)C)sc2-c2ccnc(N[C@H]3CC[C@H](N4CCN(C(=O)C5CCN(c6ccc(C7CCC(=O)NC7=O)cn6)CC5)CC4)CC3)n2)c1F (mixture of isomers) [Compound 137, N-{3-[2-tert-butyl-5-(2-{[(1r,4r)-4-[4-(1-{5-[(3RS)-2,6-dioxopiperidin-3-yl]pyridin-2-yl}piperidine-4-carbonyl)piperazin-1-yl]cyclohexyl]amino}pyrimidin-4-yl)-1,3-thiazol-4-yl]-2-fluorophenyl}propane-1-sulfonamide] | 50 to 500 | 30 to 70
3 | CCCS(=O)(=O)Nc1cccc(-c2nc(C(C)(C)C)sc2-c2ccnc(NC3CC4(C3)CN(CC3CCN(C(=O)C5CCN(c6ccc(C7CCC(=O)NC7=O)cc6)CC5)CC3)C4)n2)c1F (racemic) [Compound 140, Rac-N-[3-(2-tert-butyl-5-{2-[(2-{[1-(1-{4-[(3R)-2,6-dioxopiperidin-3-yl]phenyl}piperidine-4-carbonyl)piperidin-4-yl]methyl}-2-azaspiro[3.3]heptan-6-yl)amino]pyrimidin-4-yl}-1,3-thiazol-4-yl)-2-fluorophenyl]propane-1-sulfonamide] | 10 to 50 | > 70
4 | CCCS(=O)(=O)Nc1cccc(-c2nc(C(C)(C)C)sc2-c2ccnc(NC3CC4(C3)CN(CC3CCN(CC5CCN(c6ccc(C7CCC(=O)NC7=O)cc6)CC5)CC3)C4)n2)c1F (racemic) [Compound 142, Rac-N-{3-[2-tert-butyl-5-(2-{[2-({1-[(1-{4-[(3R)-2,6-dioxopiperidin-3-yl]phenyl}piperidin-4-yl)methyl]piperidin-4-yl}methyl)-2-azaspiro[3.3]heptan-6-yl]amino}pyrimidin-4-yl)-1,3-thiazol-4-yl]-2-fluorophenyl}propane-1-sulfonamide] | 50 to 500 | 30 to 70
5 | CCCS(=O)(=O)Nc1cccc(-c2nc(C(C)(C)C)sc2-c2ccnc(NC3CC4(C3)CN(C(=O)CN3CCN(CCCc5cccc6c5C(=O)N(C5CCC(=O)NC5=O)C6=O)CC3)C4)n2)c1F (racemic) [Compound 148, Rac-N-[3-(2-tert-butyl-5-{2-[(2-{2-[4-(3-{2-[(3R)-2,6-dioxopiperidin-3-yl]-1,3-dioxo-2,3-dihydro-1H-isoindol-4-yl}propyl)piperazin-1-yl]acetyl}-2-azaspiro[3.3]heptan-6-yl)amino]pyrimidin-4-yl}-1,3-thiazol-4-yl)-2-fluorophenyl]propane-1-sulfonamide] | > 500 | 30 to 70
6 | CCCS(=O)(=O)Nc1cccc(-c2nc(C(C)(C)C)sc2-c2ccnc(NC3CC4(C3)CN(C(=O)CCCCCc3ccc5c(c3)C(=O)N(C3CCC(=O)NC3=O)C5)C4)n2)c1F (racemic) [Compound 150, Rac-N-{3-[2-tert-butyl-5-(2-{[2-(6-{2-[(3R)-2,6-dioxopiperidin-3-yl]-3-oxo-2,3-dihydro-1H-isoindol-5-yl}hexanoyl)-2-azaspiro[3.3]heptan-6-yl]amino}pyrimidin-4-yl)-1,3-thiazol-4-yl]-2-fluorophenyl}propane-1-sulfonamide] | 50 to 500 | 30 to 70
7 | CCCS(=O)(=O)Nc1cccc(-c2nc(C(C)(C)C)sc2-c2ccnc(Nc3ccc(C4CCN(C(=O)CCCCCc5ccc6c(c5)C(=O)N(C5CCC(=O)NC5=O)C6)CC4)cc3)n2)c1F (racemic) [Compound 151, Rac-N-(3-{2-tert-butyl-5-[2-({4-[1-(6-{2-[(3R)-2,6-dioxopiperidin-3-yl]-3-oxo-2,3-dihydro-1H-isoindol-5-yl}hexanoyl)piperidin-4-yl]phenyl}amino)pyrimidin-4-yl]-1,3-thiazol-4-yl}-2-fluorophenyl)propane-1-sulfonamide] | 10 to 50 | 30 to 70
8 | CCCS(=O)(=O)Nc1cccc(-c2nc(C(C)(C)C)sc2-c2ccnc(Nc3ccc(C4CCN(C(=O)CN5CCC6(CC5)CN(c5ccc7c(c5)C(=O)N(C5CCC(=O)NC5=O)C7=O)C6)CC4)cc3)n2)c1F (racemic) [Compound 153, Rac-N-[3-(2-tert-butyl-5-{2-[(4-{1-[2-(2-{2-[(3R)-2,6-dioxopiperidin-3-yl]-1,3-dioxo-2,3-dihydro-1H-isoindol-5-yl}-2,7-diazaspiro[3.5]nonan-7-yl)acetyl]piperidin-4-yl}phenyl)amino]pyrimidin-4-yl}-1,3-thiazol-4-yl)-2-fluorophenyl]propane-1-sulfonamide] | 50 to 500 | 30 to 70
9 | CCCS(=O)(=O)Nc1cccc(-c2nc(C(C)(C)C)sc2-c2ccnc(NC3CC4(C3)CN(C(=O)C3CN(C5CCN(c6ccc7c(c6)C(=O)N(C6CCC(=O)NC6=O)C7=O)CC5)C3)C4)n2)c1F (racemic) [Compound 154, Rac-N-(3-{2-tert-butyl-5-[2-({2-[1-(1-{2-[(3R)-2,6-dioxopiperidin-3-yl]-1,3-dioxo-2,3-dihydro-1H-isoindol-5-yl}piperidin-4-yl)azetidine-3-carbonyl]-2-azaspiro[3.3]heptan-6-yl}amino)pyrimidin-4-yl]-1,3-thiazol-4-yl}-2-fluorophenyl)propane-1-sulfonamide] | 50 to 500 | > 70
10 | CCCS(=O)(=O)Nc1cccc(-c2nc(C(C)(C)C)sc2-c2ccnc(Nc3ccc(C4CCN(C(=O)C5CCN(c6ccc7c(c6)C(=O)N(C6CCC(=O)NC6=O)C7=O)CC5)CC4)cc3)n2)c1F (racemic) [Compound 155, Rac-N-(3-{2-tert-butyl-5-[2-({4-[1-(1-{2-[(3R)-2,6-dioxopiperidin-3-yl]-1,3-dioxo-2,3-dihydro-1H-isoindol-5-yl}piperidine-4-carbonyl)piperidin-4-yl]phenyl}amino)pyrimidin-4-yl]-1,3-thiazol-4-yl}-2-fluorophenyl)propane-1-sulfonamide] | 50 to 500 | 30 to 70
11 | CCCS(=O)(=O)Nc1cccc(-c2nc(C(C)(C)C)sc2-c2ccnc(Nc3ccc(C4CCN(C(=O)C5CCN(c6ccc(C7CCC(=O)NC7=O)cn6)CC5)CC4)cc3)n2)c1F (racemic) [Compound 156, Rac-N-(3-{2-tert-butyl-5-[2-({4-[1-(1-{5-[(3R)-2,6-dioxopiperidin-3-yl]pyridin-2-yl}piperidine-4-carbonyl)piperidin-4-yl]phenyl}amino)pyrimidin-4-yl]-1,3-thiazol-4-yl}-2-fluorophenyl)propane-1-sulfonamide] | 10 to 50 | > 70
12 | CCCS(=O)(=O)Nc1cccc(-c2nc(C(C)(C)C)sc2-c2ccnc(NC3CC4(C3)CN(C(=O)CC3CCN(C5CCN(c6ccc7c(c6)C(=O)N(C6CCC(=O)NC6=O)C7=O)CC5)CC3)C4)n2)c1F (racemic) [Compound 157, Rac-N-(3-{2-tert-butyl-5-[2-({2-[2-(1′-{2-[(3R)-2,6-dioxopiperidin-3-yl]-1,3-dioxo-2,3-dihydro-1H-isoindol-5-yl}-[1,4′-bipiperidin]-4-yl)acetyl]-2-azaspiro[3.3]heptan-6-yl}amino)pyrimidin-4-yl]-1,3-thiazol-4-yl}-2-fluorophenyl)propane-1-sulfonamide] | 50 to 500 | 30 to 70
13 | CCCS(=O)(=O)Nc1cccc(-c2nc(C(C)(C)C)sc2-c2ccnc(Nc3ccc(C4CCN(C(=O)CC5CCN(C6CCN(c7ccc8c(c7)C(=O)N(C7CCC(=O)NC7=O)C8=O)CC6)CC5)CC4)cc3)n2)c1F (racemic) [Compound 158, Rac-N-[3-(2-tert-butyl-5-{2-[(4-{1-[2-(1′-{2-[(3R)-2,6-dioxopiperidin-3-yl]-1,3-dioxo-2,3-dihydro-1H-isoindol-5-yl}-[1,4′-bipiperidin]-4-yl)acetyl]piperidin-4-yl}phenyl)amino]pyrimidin-4-yl}-1,3-thiazol-4-yl)-2-fluorophenyl]propane-1-sulfonamide] | 50 to 500 | 30 to 70
14 | CCCS(=O)(=O)Nc1cccc(-c2nc(C(C)(C)C)sc2-c2ccnc(NC3CC4(C3)CN(C(=O)C3CCN(c5cccc6c5n(C)c(=O)n6C5CCC(=O)NC5=O)CC3)C4)n2)c1F (racemic) [Compound 160, Rac-N-{3-[2-tert-butyl-5-(2-{[2-(1-{1-[(3R)-2,6-dioxopiperidin-3-yl]-3-methyl-2-oxo-2,3-dihydro-1H-1,3-benzodiazol-4-yl}piperidine-4-carbonyl)-2-azaspiro[3.3]heptan-6-yl]amino}pyrimidin-4-yl)-1,3-thiazol-4-yl]-2-fluorophenyl}propane-1-sulfonamide] | – | 30 to 70
15 | CCCS(=O)(=O)Nc1cccc(-c2nc(C(C)(C)C)sc2-c2ccnc(Nc3ccc(C4CCN(C(=O)C5CCN(c6cccc7c6n(C)c(=O)n7C6CCC(=O)NC6=O)CC5)CC4)cc3)n2)c1F (racemic) [Compound 161, Rac-N-(3-{2-tert-butyl-5-[2-({4-[1-(1-{1-[(3R)-2,6-dioxopiperidin-3-yl]-3-methyl-2-oxo-2,3-dihydro-1H-1,3-benzodiazol-4-yl}piperidine-4-carbonyl)piperidin-4-yl]phenyl}amino)pyrimidin-4-yl]-1,3-thiazol-4-yl}-2-fluorophenyl)propane-1-sulfonamide] | 10 to 50 | 30 to 70
